Measured values taken from patent US8710062B2, “Piperazinedione compounds” (Taipei Medical University, priority 2011, dated 2014).
Counter-ions that a name gives are not always drawn.

Tests used:
AURKA (Aurora-A) = AURKA (Aurora-A) (Homo sapiens, UniProt O14965); test: Kinome inhibition assay; assay type: biochemical
Procedure: (§1) Kinome inhibition studies were conducted following the procedures described in literature. […] In general, each purified kinase was incubated with its substrate in buffer (MOPS buffer or HEPES buffer) containing an essential metal co-enzyme or cofactor, antioxidant, and ATP (gamma-P^32 radio-labeled ATP or cold ATP). Compound 2 was co-incubated with the kinase solution thus obtained for 0.5-1 hr at 37° C. The reaction was stopped by boiling the reaction solution with an extra SDS solution. The phosphorylation level of the substrate was monitored ether by quantification of the radio-labeled substrate or by quantification of phosphor-substrate specific antibodies. In each study, a reference standard was run as an integral part to ensure the validity of the experimental results obtained. The table below includes the IC50 values obtained from this experiment.

LMK1 = LMK1 (Homo sapiens, UniProt P53667); test: Kinome inhibition assay; assay type: biochemical
Procedure: as §1

Insulin Receptor = Insulin Receptor (Homo sapiens, UniProt P06213); test: Kinome inhibition assay; assay type: biochemical
Procedure: as §1

MET (HGFR) = MET (HGFR) (Homo sapiens, UniProt P08581); test: Kinome inhibition assay; assay type: biochemical
Procedure: as §1

ERBB2 (HER2) = ERBB2 (HER2) (Homo sapiens, UniProt P04626); test: Kinome inhibition assay; assay type: biochemical
Procedure: as §1

PIM1 = PIM1 (Homo sapiens, UniProt P11309); test: Kinome inhibition assay; assay type: biochemical
Procedure: as §1

SGK2 = SGK2 (Homo sapiens, UniProt Q9HBY8); test: Kinome inhibition assay; assay type: biochemical
Procedure: as §1

MAPK8 (JNK1) = MAPK8 (JNK1) (Homo sapiens, UniProt P45983); test: Kinome inhibition assay; assay type: biochemical
Procedure: as §1

FER (TYK3) = FER (TYK3) (Homo sapiens, UniProt P16591); test: Kinome inhibition assay; assay type: biochemical
Procedure: as §1

ABL1 = ABL1 (Mus musculus, UniProt P00520); test: Kinome inhibition assay; assay type: biochemical
Procedure: as §1

NTRK1 (TRKA) = NTRK1 (TRKA) (Homo sapiens, UniProt P04629); test: Kinome inhibition assay; assay type: biochemical
Procedure: as §1

PDK1 = PDK1 (Homo sapiens, UniProt O15530); test: Kinome inhibition assay; assay type: biochemical
Procedure: as §1

CAMK2D (KCC2D) = CAMK2D (KCC2D) (Homo sapiens, UniProt Q13557); test: Kinome inhibition assay; assay type: biochemical
Procedure: as §1

RET = RET (Homo sapiens, UniProt P07949); test: Kinome inhibition assay; assay type: biochemical
Procedure: as §1

GSK3B = GSK3B (Homo sapiens, UniProt P49841); test: Kinome inhibition assay; assay type: biochemical
Procedure: as §1

CDC42BPB = CDC42BPB (Homo sapiens, UniProt Q9Y5S2); test: Kinome inhibition assay; assay type: biochemical
Procedure: as §1

SRPK1 = SRPK1 (Homo sapiens, UniProt Q96SB4); test: Kinome inhibition assay; assay type: biochemical
Procedure: as §1

AKT1 (PRKBA) = AKT1 (PRKBA) (Homo sapiens, UniProt P31749); test: Kinome inhibition assay; assay type: biochemical
Procedure: as §1

SGK1 = SGK1 (Homo sapiens, UniProt O00141); test: Kinome inhibition assay; assay type: biochemical
Procedure: as §1

RP56KA5 (MSK1) = RP56KA5 (MSK1) (Homo sapiens, UniProt O75582); test: Kinome inhibition assay; assay type: biochemical
Procedure: as §1

[1] = system: human HL-60 promyelocytic leukemia xenograft; test: HL-60 xenograft in SCID mice; details: for median TTE (time to endpoint): control median TTE 11.0 days
Procedure: Nude-athymic mice were maintained in accordance with the Institutional Animal Care and Use Committee procedures and guidelines.
The medium was supplemented with 10% heat-inactivated fetal bovine serum and 2 mM glutamine.
The human HL-60 promyelocytic leukemia cells used for implantation were harvested during log phase growth and resuspended in phosphate-buffered saline at 8.0×10^7 cells/mL. Each mouse was injected s.c. in the right flank with 1.6×10^7 cells (0.2 mL cell suspension). Tumors were monitored twice weekly and then daily as their volumes approached 100 mm^3. […] Tumor size, in mm3, was calculated as: Tumor Volume=w2×l, where w=width and l=length in mm of the tumor. Tumor weight can be estimated with the assumption that 1 mg is equivalent to 1 mm3 of tumor volume.
The agent was given dose at 5 mg/kg once every day (qd) and every other day (q2d) to endpoint. Treatments began on Day 1 (D1) in groups of male SCID mice (n=6) bearing established (˜444.4 mm3) subcutaneous tumors. […] Logrank tests determine significance of the differences between TTE values for drug-treated and control mice, at P≦0.05.

[2] = @ 30 μM, read-out: Single dose inhibition
[3] = @ 10 μM, read-out: Single dose inhibition
[4] = 5 mg/kg p.o. every other day (q2d)

Sequence of GSK3B (P49841 whole entry): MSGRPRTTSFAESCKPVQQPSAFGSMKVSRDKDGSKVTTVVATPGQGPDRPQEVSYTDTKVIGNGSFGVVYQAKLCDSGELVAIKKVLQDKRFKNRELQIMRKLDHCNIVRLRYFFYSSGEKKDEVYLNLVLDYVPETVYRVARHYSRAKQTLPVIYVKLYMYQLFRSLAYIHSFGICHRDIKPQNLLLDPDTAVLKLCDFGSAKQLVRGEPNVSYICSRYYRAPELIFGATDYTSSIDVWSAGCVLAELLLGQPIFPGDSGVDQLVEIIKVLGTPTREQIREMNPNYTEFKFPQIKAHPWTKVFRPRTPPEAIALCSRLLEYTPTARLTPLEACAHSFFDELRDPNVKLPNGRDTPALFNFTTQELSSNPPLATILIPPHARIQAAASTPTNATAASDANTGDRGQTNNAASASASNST
Sequence of RET (P07949 29-1114): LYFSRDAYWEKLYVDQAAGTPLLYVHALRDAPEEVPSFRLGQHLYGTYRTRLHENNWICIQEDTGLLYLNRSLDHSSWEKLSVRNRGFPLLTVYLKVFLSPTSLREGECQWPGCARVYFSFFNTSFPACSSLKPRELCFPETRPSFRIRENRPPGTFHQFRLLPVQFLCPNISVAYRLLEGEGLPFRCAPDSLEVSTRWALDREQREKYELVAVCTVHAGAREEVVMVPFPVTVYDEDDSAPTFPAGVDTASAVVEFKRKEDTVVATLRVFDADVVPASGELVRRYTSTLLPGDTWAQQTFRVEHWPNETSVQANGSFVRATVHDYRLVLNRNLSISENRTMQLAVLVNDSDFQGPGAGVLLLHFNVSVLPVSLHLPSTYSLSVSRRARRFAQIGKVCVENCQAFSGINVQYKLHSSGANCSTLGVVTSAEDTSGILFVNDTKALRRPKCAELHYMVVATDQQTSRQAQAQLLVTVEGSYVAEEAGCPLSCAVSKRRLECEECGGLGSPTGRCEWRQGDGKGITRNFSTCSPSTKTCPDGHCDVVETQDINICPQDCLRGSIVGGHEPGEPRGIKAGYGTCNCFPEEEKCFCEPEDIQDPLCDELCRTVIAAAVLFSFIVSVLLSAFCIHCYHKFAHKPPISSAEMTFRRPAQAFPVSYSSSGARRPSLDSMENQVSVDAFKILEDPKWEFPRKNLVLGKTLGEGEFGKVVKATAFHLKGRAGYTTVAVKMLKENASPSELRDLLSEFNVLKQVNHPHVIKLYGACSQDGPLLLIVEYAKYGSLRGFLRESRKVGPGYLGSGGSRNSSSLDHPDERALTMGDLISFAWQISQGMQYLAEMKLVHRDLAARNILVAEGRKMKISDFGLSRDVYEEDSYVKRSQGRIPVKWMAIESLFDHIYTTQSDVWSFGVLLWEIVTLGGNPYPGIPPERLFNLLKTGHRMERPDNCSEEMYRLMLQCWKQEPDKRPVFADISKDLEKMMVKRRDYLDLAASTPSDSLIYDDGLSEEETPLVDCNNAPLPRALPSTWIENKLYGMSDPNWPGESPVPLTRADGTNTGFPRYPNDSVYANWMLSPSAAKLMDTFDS
Sequence of AURKA (Aurora-A) (O14965 whole entry): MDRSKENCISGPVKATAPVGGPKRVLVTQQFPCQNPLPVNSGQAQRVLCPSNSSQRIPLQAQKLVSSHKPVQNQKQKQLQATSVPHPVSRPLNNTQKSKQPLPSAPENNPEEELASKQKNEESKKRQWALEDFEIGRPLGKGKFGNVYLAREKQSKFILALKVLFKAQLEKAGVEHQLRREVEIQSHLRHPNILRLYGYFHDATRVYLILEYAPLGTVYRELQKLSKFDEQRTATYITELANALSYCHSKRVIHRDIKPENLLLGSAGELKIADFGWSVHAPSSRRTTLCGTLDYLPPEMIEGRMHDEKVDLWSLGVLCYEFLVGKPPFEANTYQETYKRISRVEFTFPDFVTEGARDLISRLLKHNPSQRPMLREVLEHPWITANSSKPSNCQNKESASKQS
Sequence of ABL1 (P00520 whole entry): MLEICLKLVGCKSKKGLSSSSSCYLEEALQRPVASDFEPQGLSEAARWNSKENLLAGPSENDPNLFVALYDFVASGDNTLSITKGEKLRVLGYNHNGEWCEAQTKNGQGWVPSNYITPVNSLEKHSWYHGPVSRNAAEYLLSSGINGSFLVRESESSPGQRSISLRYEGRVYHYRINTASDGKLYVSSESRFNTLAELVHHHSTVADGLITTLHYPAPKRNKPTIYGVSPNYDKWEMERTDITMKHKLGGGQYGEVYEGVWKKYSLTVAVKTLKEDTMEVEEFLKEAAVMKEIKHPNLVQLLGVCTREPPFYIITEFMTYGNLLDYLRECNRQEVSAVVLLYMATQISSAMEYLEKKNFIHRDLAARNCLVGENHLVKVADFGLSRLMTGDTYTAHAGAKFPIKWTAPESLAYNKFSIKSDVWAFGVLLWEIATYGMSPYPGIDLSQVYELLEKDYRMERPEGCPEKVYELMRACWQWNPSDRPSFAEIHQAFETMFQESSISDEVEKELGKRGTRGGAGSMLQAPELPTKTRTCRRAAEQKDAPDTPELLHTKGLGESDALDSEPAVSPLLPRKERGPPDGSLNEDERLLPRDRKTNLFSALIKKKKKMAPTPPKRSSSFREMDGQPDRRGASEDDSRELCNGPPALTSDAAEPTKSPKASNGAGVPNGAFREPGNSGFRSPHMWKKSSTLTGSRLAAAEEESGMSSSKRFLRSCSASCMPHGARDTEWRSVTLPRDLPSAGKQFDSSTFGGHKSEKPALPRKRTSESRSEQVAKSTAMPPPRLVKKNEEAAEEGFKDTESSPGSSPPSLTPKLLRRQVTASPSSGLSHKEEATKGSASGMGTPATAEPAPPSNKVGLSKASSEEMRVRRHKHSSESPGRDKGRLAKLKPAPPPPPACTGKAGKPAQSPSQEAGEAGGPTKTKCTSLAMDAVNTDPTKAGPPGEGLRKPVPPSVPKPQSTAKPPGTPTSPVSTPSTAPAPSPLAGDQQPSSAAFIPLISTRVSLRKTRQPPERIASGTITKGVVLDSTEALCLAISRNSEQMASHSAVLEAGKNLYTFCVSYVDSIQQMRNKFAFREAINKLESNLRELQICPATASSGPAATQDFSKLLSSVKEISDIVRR
Sequence of CDC42BPB (Q9Y5S2 whole entry): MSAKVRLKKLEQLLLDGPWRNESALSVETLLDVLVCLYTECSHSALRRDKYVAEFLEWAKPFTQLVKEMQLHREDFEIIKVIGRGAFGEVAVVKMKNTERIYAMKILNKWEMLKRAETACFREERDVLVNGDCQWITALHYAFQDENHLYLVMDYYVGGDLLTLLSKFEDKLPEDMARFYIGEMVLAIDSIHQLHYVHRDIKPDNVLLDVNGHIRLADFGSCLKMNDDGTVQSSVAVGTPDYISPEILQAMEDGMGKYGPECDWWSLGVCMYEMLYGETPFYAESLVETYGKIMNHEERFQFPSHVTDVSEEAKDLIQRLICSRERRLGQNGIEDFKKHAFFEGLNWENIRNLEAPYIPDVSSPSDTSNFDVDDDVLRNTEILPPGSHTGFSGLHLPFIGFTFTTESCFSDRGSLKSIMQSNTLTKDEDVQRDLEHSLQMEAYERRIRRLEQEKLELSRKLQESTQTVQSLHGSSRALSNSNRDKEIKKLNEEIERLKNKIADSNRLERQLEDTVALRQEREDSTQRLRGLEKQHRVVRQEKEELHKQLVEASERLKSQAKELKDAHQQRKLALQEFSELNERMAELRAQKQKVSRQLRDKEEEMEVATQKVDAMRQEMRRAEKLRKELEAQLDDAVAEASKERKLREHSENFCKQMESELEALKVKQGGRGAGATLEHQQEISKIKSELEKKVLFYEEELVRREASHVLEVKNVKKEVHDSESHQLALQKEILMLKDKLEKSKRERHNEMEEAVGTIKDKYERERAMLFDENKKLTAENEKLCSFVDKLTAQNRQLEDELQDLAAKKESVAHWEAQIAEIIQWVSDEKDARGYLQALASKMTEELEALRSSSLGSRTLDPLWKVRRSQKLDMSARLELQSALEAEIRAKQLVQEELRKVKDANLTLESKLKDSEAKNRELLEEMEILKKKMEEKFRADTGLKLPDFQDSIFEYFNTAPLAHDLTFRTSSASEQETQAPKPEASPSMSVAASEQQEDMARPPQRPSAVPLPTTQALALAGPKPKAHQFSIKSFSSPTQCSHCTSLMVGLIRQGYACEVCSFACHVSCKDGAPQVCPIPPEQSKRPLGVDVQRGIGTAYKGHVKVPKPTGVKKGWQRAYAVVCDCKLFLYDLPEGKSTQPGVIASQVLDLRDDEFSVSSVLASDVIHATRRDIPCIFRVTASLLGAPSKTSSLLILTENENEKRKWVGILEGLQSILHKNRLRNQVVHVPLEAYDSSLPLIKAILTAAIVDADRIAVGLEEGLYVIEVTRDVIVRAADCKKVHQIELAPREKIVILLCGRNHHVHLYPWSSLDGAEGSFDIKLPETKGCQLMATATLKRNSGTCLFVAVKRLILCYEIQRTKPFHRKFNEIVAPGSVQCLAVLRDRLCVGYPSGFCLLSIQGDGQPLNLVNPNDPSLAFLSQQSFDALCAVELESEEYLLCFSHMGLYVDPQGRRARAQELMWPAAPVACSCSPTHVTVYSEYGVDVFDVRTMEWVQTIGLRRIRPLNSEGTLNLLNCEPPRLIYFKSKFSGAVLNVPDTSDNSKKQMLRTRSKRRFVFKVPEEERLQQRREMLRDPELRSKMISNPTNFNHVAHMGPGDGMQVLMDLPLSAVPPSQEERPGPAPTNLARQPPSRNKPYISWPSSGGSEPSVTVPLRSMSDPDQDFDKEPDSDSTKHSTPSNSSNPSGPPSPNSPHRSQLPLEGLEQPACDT
Sequence of PIM1 (P11309 whole entry): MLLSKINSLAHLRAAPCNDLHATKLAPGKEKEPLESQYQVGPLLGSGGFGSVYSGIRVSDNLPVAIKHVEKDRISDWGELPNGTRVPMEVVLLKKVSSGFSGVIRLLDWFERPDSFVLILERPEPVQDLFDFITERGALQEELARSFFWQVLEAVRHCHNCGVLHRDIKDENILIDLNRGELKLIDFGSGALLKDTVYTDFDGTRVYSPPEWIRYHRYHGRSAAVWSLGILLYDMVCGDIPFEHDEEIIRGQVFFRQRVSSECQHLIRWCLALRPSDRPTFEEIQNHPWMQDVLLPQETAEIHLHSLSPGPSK

## O=c1[nH]/c(=C\c2ccc(OCc3ccncc3)cn2)c(=O)[nH]/c1=C\c1ccccc1 [Compound 2, 3-benzylidene-6-((5-(pyridin-4-ylmethoxy)pyridin-2-yl)methylene)piperazine-2,5-dione methanesulfonic acid salt]
AURKA (Aurora-A); [2]
  inhibition at 30 µM: 73%
AURKA (Aurora-A); AURKA (Aurora-A), Human
  IC50: 13.7 µM
LMK1; [3]
  inhibition at 10 µM: 68%
LMK1; LMK1, Human
  IC50: 5.8 µM
Insulin Receptor; @ 3 μM, read-out: Single dose inhibition
  inhibition at 3 µM: 70%
Insulin Receptor; Insulin Receptor, Human
  IC50: 1830 nM
MET (HGFR); [2]
  inhibition at 30 µM: 79%
MET (HGFR); MET (HGFR), Human
  IC50: 12.3 µM
ERBB2 (HER2); [3]
  inhibition at 10 µM: 69%
ERBB2 (HER2); ERBB2 (HER2), Human
  IC50: 5.56 µM
PIM1; [2]
  inhibition at 30 µM: 98%
PIM1; PIM1, Human
  IC50: 9.52 µM
SGK2; [3]
  inhibition at 10 µM: 78%
SGK2; SGK2, Human
  IC50: 3.55 µM
MAPK8 (JNK1); [3]
  inhibition at 10 µM: 74%
MAPK8 (JNK1); MAPK8 (JNK1), Human
  IC50: 4.79 µM
FER (TYK3); [3]
  inhibition at 10 µM: 55%
FER (TYK3); FER (TYK3), Human
  IC50: 7.23 µM
ABL1; [3]
  inhibition at 10 µM: 90%
ABL1; ABL1, Mouse
  IC50: 3.17 µM
NTRK1 (TRKA); [2]
  inhibition at 30 µM: 66%
NTRK1 (TRKA); NTRK1 (TRKA), Human
  IC50: 17.4 µM
PDK1; [3]
  inhibition at 10 µM: 59%
PDK1; PDK1, Human
  IC50: 8.18 µM
CAMK2D (KCC2D); [3]
  inhibition at 10 µM: 70%
CAMK2D (KCC2D); CAMK2D (KCC2D), Human
  IC50: 7.39 µM
RET; [3]
  inhibition at 10 µM: 73%
RET; RET, Human
  IC50: 4.89 µM
GSK3B; [2]
  inhibition at 30 µM: 69%
GSK3B; GSK3B, Human
  IC50: 10.9 µM
CDC42BPB; [3]
  inhibition at 10 µM: 52%
CDC42BPB; CDC42BPB, Human
  IC50: 8.18 µM
SRPK1; [3]
  inhibition at 10 µM: 61%
SRPK1; SRPK1, Human
  IC50: 10.6 µM
AKT1 (PRKBA); [3]
  inhibition at 10 µM: 93%
AKT1 (PRKBA); AKT1 (PRKBA), Human
  IC50: 3.93 µM
SGK1; [3]
  inhibition at 10 µM: 83%
SGK1; SGK1, Human
  IC50: 2920 nM
RP56KA5 (MSK1); [3]
  inhibition at 10 µM: 53%
RP56KA5 (MSK1); RP56KA5 (MSK1), Human
  IC50: 7.88 µM
[1]; [4]
  % TGD (percent tumor growth delay): 120%
  T−C: 13.2 days
  median TTE (time to endpoint): 24.2 days
[1]; 5 mg/kg p.o. every other day (q2d), on day 8
  maximum BW loss: 4.2%
[1]; 5 mg/kg p.o. once a day (qd)
  % TGD (percent tumor growth delay): 29%
  T−C: 3.2 days
  median TTE (time to endpoint): 14.2 days
[1]; 5 mg/kg p.o. once a day (qd), n=6
  treatment related deaths: Two
[1]; 5 mg/kg p.o. once a day (qd), on day 11
  maximum BW loss: 1.9%
